Data on 1 compound can be found in ChEMBL document CHEMBL1155854, “Conformationally constrained farnesoid X receptor (FXR) agonists: Naphthoic acid-based analogs of GW 4064” (Bioorg Med Chem Lett, 2008).

Broadly, the bioavailability is dose-corrected exposure relative to a reference, in per cent. A lower bioavailability goes with little systemic uptake. One may read the half-life as how long it takes for the measured level to halve. What is called solubility is the dissolved amount per volume that the medium holds. Low readings indicate a poorly soluble substance, high ones a readily soluble substance. Broadly, the IC50 is the concentration at which inhibition is half-maximal. Lower therefore signals greater potency. Usually clearance stands for the volume of plasma or blood freed of the substance per unit of time. The low end stands for inefficient removal, the high end for efficient removal.

Series [1] in a line: Oral bioavailability in mouse at 30 mg/kg. Format: ADME, organism-based. To be noted: in vivo.
Series [2] is described as follows: Half life in iv dosed Beagle dog. Format: ADME, organism-based, Canis lupus familiaris. The note with it: in vivo.
The next series addresses T1, PXR (Homo sapiens, UniProt O75469).
T1 sequence (O75469 whole entry): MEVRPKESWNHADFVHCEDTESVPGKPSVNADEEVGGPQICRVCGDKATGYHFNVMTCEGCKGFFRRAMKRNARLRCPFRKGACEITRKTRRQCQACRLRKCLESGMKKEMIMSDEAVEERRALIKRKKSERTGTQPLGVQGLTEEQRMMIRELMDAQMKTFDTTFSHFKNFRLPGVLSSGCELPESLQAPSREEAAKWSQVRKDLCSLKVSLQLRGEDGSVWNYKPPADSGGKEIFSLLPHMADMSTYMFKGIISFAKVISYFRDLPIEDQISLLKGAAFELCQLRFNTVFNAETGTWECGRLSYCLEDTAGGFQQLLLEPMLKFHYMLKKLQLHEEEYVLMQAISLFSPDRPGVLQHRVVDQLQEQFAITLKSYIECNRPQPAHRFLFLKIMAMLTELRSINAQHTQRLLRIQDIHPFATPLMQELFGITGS
Briefly: Agonist activity at PXR by SPA assay relative to GW-4064. To be noted: read-out: %max. In kind it is functional.

The nature of series [3]: Solubility in fasted state-simulated intestinal fluid at pH 6.5. In kind it is physicochemical. To be noted: simulated gi fluid.
Series [4] is described as follows: Half life in iv dosed rat. In kind it is ADME, organism-based. The note with it: in vivo.
The target of another series is Estrogen receptor beta (Homo sapiens, UniProt Q92731). Kind of series: Agonist activity at ERbeta by fluorescence polarization assay. In kind it is functional.
Estrogen receptor beta, sequence (Q92731 whole entry): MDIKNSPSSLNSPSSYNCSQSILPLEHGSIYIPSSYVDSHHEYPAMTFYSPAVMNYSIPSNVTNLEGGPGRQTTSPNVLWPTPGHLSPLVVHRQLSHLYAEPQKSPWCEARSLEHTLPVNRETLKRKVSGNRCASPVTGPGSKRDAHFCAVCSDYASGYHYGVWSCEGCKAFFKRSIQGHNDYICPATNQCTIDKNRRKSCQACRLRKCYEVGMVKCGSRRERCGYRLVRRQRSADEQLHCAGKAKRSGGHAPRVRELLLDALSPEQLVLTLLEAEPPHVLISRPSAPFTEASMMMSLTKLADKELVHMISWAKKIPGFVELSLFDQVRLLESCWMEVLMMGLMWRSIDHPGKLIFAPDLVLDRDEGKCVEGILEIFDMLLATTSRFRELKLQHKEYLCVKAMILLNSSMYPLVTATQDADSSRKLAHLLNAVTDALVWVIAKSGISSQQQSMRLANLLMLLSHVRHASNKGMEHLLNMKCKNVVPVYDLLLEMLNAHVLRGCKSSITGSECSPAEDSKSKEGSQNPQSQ
The target of another series is T2, Cytochrome P450 1A2 (Homo sapiens, UniProt P05177).
T2 sequence (P05177 whole entry): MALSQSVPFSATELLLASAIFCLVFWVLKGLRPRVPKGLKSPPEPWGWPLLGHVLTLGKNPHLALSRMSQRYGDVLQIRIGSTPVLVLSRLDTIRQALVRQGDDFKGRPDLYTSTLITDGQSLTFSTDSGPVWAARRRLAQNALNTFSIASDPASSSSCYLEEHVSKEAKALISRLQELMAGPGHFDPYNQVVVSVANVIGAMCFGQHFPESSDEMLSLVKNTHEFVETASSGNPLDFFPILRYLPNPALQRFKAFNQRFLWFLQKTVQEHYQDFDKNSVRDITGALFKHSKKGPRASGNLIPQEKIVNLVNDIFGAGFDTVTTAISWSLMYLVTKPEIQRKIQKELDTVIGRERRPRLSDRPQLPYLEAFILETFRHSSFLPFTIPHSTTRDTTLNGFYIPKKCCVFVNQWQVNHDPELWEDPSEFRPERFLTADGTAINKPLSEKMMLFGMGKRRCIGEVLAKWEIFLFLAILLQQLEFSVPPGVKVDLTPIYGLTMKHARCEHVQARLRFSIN
Kind of series: Inhibition of CYP1A2 in pooled human liver microsome. Format: ADME, microsomes. Background: Liver microsomes are vesicles of endoplasmic reticulum, rich in cytochrome P450 enzymes.

Series [5] in a line: Clearance in iv dosed Beagle dog. Format: ADME, organism-based, Canis lupus familiaris. To be noted: in vivo.
Series [6] can be described thus: Clearance in iv dosed mouse. Format: ADME, organism-based. To be noted: in vivo.

≈ marks a conversion by molar mass, not a printed value.

In [1], `CC(C)c1onc(-c2c(Cl)cccc2Cl)c1COc1ccc(-c2ccc3c(C(=O)O)cccc3c2)cc1` showed a bioavailability of 3.9%. Also, the figures for the half-life in series [2] and in series [4] were 4.17 h and 0.4 h, respectively. Besides, at PXR, the Emax was 63%. This compound returned a solubility in series [3] of 1 µg/mL (≈ 1.88 µM). Besides, at Estrogen receptor beta, the XC50 was more than 20 µM. Further, at Cytochrome P450 1A2, the IC50 was determined as 23 µM. The results for the clearance in series [5] and in series [6] were 2 mL/min/kg and 7 mL/min/kg, respectively.
